Reference: patent US10871495B2, “Biomarkers of polycystic kidney disease and uses thereof” (Genzyme Corporation, priority 2014, dated 2020)

Key:
[1] = system: pcy mice; experiment: Immunoblot of marker levels in urinary exosomes of pcy mice treated with GCS inhibitor; type: in vivo, mouse; conditions: pcy mice treated for thirty weeks (0.225% in diet), vs untreated mice, FIG. 4
Procedure: (§1) C57BL/6J jck/+ mice were maintained for crossing. The cystic jck/jck mice were genotyped as previously described (Smith et al., J. Am. Soc. Nephrol. 17:2821-2831, 2006). Pcy mice were maintained on a CD1 genetic background as previously described (Takahashi et al., J. Am. Soc. Nephrol. 1:980-989, 1991). GCS inhibitor C9 was administered ad libitum to jck and pcy mice by mixing in powdered 5053 diet at 0.225% from 26 to 64 days and 4 to 30 weeks of age, respectively (as described in Natoli et al., Nature Medicine 16:788-792, 2010). Urine samples from the mice were collected in metabolic cages over a 24-hour period and stored at −80° C.
(§2) Exosomes were isolated from pooled urine samples (animal studies) or mid void urine samples (human samples) by ultracentrifugation at 100,000 g for 2 hours. Following ultracentrifugation, the exosome pellet was resuspended in 2.5× Laemmli Buffer (5×: 15% SDS, 0.575 M sucrose, 0.325 M Tris, pH 6.8, 5% beta-mercapto ethanol, and 0.002% bromophenol blue) for sodium dodecyl sulfate-polyacrylamide gel electrophoresis (SDS-PAGE) and immunoblot analysis.
Kidney samples were homogenized on ice in radioimmunoprecipitation assay (RIPA) buffer (Boston BioProducts, Ashland, Mass.) containing 1 mM dithiothreitol, 5 mM ethylenediaminetetraacetic acid (EDTA), 2 mM NaF, 1 mM Na3VO4 (all supplied by Sigma-Aldrich, St. Louis, Mo.), Pefabloc SC and Complete protease inhibitor cocktail (both from Roche, Basel, Switzerland). Protein concentration was determined by BCA protein assay (Pierce, Rockford, Ill.). The samples were loaded onto 4-12% NuPage Bis-Tris gels following the manufacturer's protocols (Invitrogen, Grand Island, N.Y.). Electrophoretic transfer of the proteins in the gel onto nitrocellulose was performed in a semi-dry apparatus according to the manufacturer's instructions (Invitrogen). After electrophoretic transfer, the resulting membranes were blocked with 5% non-fat milk in tris-buffered saline (TBS) containing 0.1% Tween-20 and incubated with primary antibodies overnight at 4° C. The primary antibodies were detected with horseradish peroxidase-labeled secondary antibodies at a 1:10,000 dilution (Promega, Fitchburg, Wis.). […]
A further set of experiments was performed to validate the use of the markers described herein for both diagnosing and determining the efficacy of treatment in human patients having PKD. […] In these experiments, pcy mice were left untreated or were treated with GCS inhibitor C9 for thirty weeks, and then the expression levels of the markers described herein were determined in both kidney lysate and urine exosome samples. […]

[2] = system: jck mice; experiment: Immunoblot of marker levels in urinary exosomes of jck mice treated with GCS inhibitor; type: in vivo, mouse; conditions: jck mice treated continuously for 5 weeks (0.225% in diet), vs control mice, FIG. 3
Procedure: as §1, §2
(§3) Kidney samples were homogenized on ice in radioimmunoprecipitation assay (RIPA) buffer (Boston BioProducts, Ashland, Mass.) containing 1 mM dithiothreitol, 5 mM ethylenediaminetetraacetic acid (EDTA), 2 mM NaF, 1 mM Na3VO4 (all supplied by Sigma-Aldrich, St. Louis, Mo.), Pefabloc SC and Complete protease inhibitor cocktail (both from Roche, Basel, Switzerland). Protein concentration was determined by BCA protein assay (Pierce, Rockford, Ill.). The samples were loaded onto 4-12% NuPage Bis-Tris gels following the manufacturer's protocols (Invitrogen, Grand Island, N.Y.). Electrophoretic transfer of the proteins in the gel onto nitrocellulose was performed in a semi-dry apparatus according to the manufacturer's instructions (Invitrogen). After electrophoretic transfer, the resulting membranes were blocked with 5% non-fat milk in tris-buffered saline (TBS) containing 0.1% Tween-20 and incubated with primary antibodies overnight at 4° C. The primary antibodies were detected with horseradish peroxidase-labeled secondary antibodies at a 1:10,000 dilution (Promega, Fitchburg, Wis.). […] The primary antibodies to the following antigenes were used: PCNA (DAKO, Carpinteria, Calif.), cyclin D1, S6, phospho-S6 (Ser235/236), phospho-AKT (ser473), total ERK, phospho-ERK (Thr202/Tyr204) (Cell Signaling Technology, Danvers, Mass.), cyclin D3, total AKT, caspase-2, RBBP (BD Biosciences, Billerica, Mass.), MEK1 (Upstate Biotechnology, Lake Placid, N.Y.), aquaporin-2 (Millipore, Billerica, Mass.) β-actin, TSG101 (Abcam, Cambridge, Mass.), ALIX (Santa Cruz Biotechnology, Dallas, Tex.), and GAPDH (US Biological, Salem, Mass.).
A further set of experiments was performed to determine whether the same markers could be used to determine the efficacy of a treatment for PKD in a patient having PKD. In these experiments, urine samples from jck mice that were treated with GCS inhibitor C9 continuously for 5 weeks were gathered (FIG. 2) and the levels of each biomarker were analyzed in urine exosomes and kidney lysate samples. […] The data in FIG. 3 show, e.g., that the levels of PCNA, cyclin D3, RBBP, MEK, Erk, phosphorylated ERK, Akt, phosphorylated Akt, S6, phosphorylated S6, and caspase-2 are decreased in kidney lysate samples from jck mice treated with a GCS inhibitor as compared to the levels in kidney lysate samples from control mice. […]

[3] = system: pcy mice; conditions: Natoli et al., Nature Medicine 16:788-792, 2010; cited from earlier work
[4] = system: pcy mice; experiment: Immunoblot of marker levels in kidney lysate of pcy mice treated with GCS inhibitor; type: in vivo, mouse; conditions: pcy mice treated for thirty weeks (0.225% in diet), vs untreated mice, FIG. 4
Procedure: as §1, §3
A further set of experiments was performed to validate the use of the markers described herein for both diagnosing and determining the efficacy of treatment in human patients having PKD. In these experiments, another mouse model of PKD, pcy mice were used. The pcy mouse model is a slowly progressive adult form of PKD characterized by cyst formation and fibrosis. […] In these experiments, pcy mice were left untreated or were treated with GCS inhibitor C9 for thirty weeks, and then the expression levels of the markers described herein were determined in both kidney lysate and urine exosome samples. The data from these experiments show the levels of the markers were decreased in both the kidney lysate samples and the urine exosome samples from pcy mice treated with GCS inhibitor C9 as compared to the corresponding levels in the untreated mice (FIG. 4). […] The data in FIG. 4 also show, for example, that the levels of PCNA, phosphorylated Erk, phosphorylated Akt, and S6 are decreased in urinary exosomes from pcy mice treated with GCS inhibitor C9 as compared to the untreated mice.

[5] = system: jck mice; experiment: Immunoblot of marker levels in kidney lysate of jck mice treated with GCS inhibitor; type: in vivo, mouse; conditions: jck mice treated continuously for 5 weeks (0.225% in diet), vs control mice, FIG. 3
Procedure: as §1, §3
A further set of experiments was performed to determine whether the same markers could be used to determine the efficacy of a treatment for PKD in a patient having PKD. In these experiments, urine samples from jck mice that were treated with GCS inhibitor C9 continuously for 5 weeks were gathered (FIG. 2) and the levels of each biomarker were analyzed in urine exosomes and kidney lysate samples. […] The data in FIG. 3 show, e.g., that the levels of PCNA, cyclin D3, RBBP, MEK, Erk, phosphorylated ERK, Akt, phosphorylated Akt, S6, phosphorylated S6, and caspase-2 are decreased in kidney lysate samples from jck mice treated with a GCS inhibitor as compared to the levels in kidney lysate samples from control mice. The data in FIG. 3 also show, e.g., that the levels of PCNA, cyclin D1, cyclin D3, MEK, and S6 are decreased in urinary exosomes from jck mice treated with a GCS inhibitor as compared to the levels in urinary exosomes from control mice.

CCCCCCCCC(=O)N[C@H](CN1CCCC1)[C@H](O)c1ccc2c(c1)OCCO2 [GCS inhibitor C9]
effective inhibition: cystogenesis [3] | fibrogenesis [3]
decreased: level of PCNA [1] | level of S6 [1] | level of phosphorylated Akt [1] | level of phosphorylated Erk [1] | level of MEK [2] | level of PCNA [2] | level of S6 [2] | level of cyclin D1 [2] | level of cyclin D3 [2] | level of PCNA [4] | level of S6 [4] | level of phosphorylated Akt [4] | level of phosphorylated Erk [4] | level of phosphorylated S6 [4] | level of Akt [5] | level of Erk [5] | level of MEK [5] | level of PCNA [5] | level of RBBP [5] | level of S6 [5] | level of caspase-2 [5] | level of cyclin D3 [5] | level of phosphorylated Akt [5] | level of phosphorylated ERK [5] | level of phosphorylated S6 [5]
